Laboratory results: the NIST ThermoML archive (doi:10.1016/j.jct.2006.09.008)

Assay: molar heat capacity at constant pressure; mn = molality of the nth substance listed, in mol/kg
Conditions: 350 kPa, Liquid

O=[N+]([O-])[O-].O=[N+]([O-])[O-].[Sr+2] [strontium nitrate] + O
molar heat capacity at constant pressure [J/K/mol]
Conditions	m1 = 0.0499	m1 = 0.1006	m1 = 0.2005	m1 = 0.4995	m1 = 0.7992	m1 = 0.9995	m1 = 1.502	m1 = 2.003	m1 = 3.001
278.15 K	75.4	75.15	74.75	74.1	73.96	74.06	74.66	75.65	77.88
283.15 K	75.27	75.05	74.7	74.14	74.04	74.14	74.76	75.76	77.98
288.15 K	75.18	74.99	74.68	74.19	74.11	74.22	74.84	75.84	78.06
293.15 K	75.13	74.95	74.67	74.24	74.18	74.3	74.92	75.92	78.12
298.15 K	75.1	74.94	74.68	74.29	74.25	74.37	74.99	75.99	78.17
303.15 K	75.08	74.93	74.7	74.34	74.31	74.43	75.05	76.04	78.21
308.15 K	75.08	74.94	74.72	74.39	74.37	74.49	75.1	76.09	78.24
313.15 K	75.09	74.95	74.75	74.44	74.42	74.55	75.15	76.13	78.27
318.15 K	75.11	74.98	74.79	74.49	74.48	74.6	75.2	76.17	78.29
323.15 K	75.14	75.01	74.83	74.55	74.54	74.66	75.25	76.2	78.31
328.15 K	75.17	75.05	74.87	74.6	74.59	74.71	75.29	76.24	78.32
333.15 K	75.21	75.1	74.92	74.66	74.65	74.76	75.33	76.27	78.34
338.15 K	75.26	75.15	74.98	74.72	74.71	74.82	75.37	76.3	78.36
343.15 K	75.32	75.21	75.04	74.78	74.77	74.87	75.41	76.33	78.38
348.15 K	75.39	75.27	75.11	74.85	74.83	74.93	75.46	76.36	78.41
353.15 K	75.46	75.34	75.18	74.91	74.89	74.98	75.5	76.4	78.43
358.15 K	75.54	75.42	75.25	74.98	74.95	75.04	75.55	76.44	78.47
363.15 K	75.62	75.5	75.33	75.06	75.02	75.11	75.6	76.48	78.52
368.15 K	75.71	75.59	75.42	75.14	75.09	75.17	75.65	76.53	78.57
373.15 K	75.81	75.69	75.51	75.22	75.17	75.24	75.71	76.59	78.64
378.15 K	75.92	75.8	75.61	75.31	75.25	75.32	75.78	76.65	78.72
383.15 K	76.04	75.91	75.72	75.4	75.33	75.4	75.85	76.72	78.82
388.15 K	76.16	76.03	75.83	75.5	75.42	75.49	75.93	76.8	78.94
393.15 K	76.3	76.16	75.95	75.61	75.52	75.58	76.02	76.89	79.07
